# Test results from US8952024B2, “Herbicidal pyrimidone derivatives” (E I du Pont de Nemours and Company, priority 2009, dated 2015).
# Assays:
# Format in all cases: in vivo
# [1] = system: barnyardgrass (Echinochloa crus-galli); assay: Test B flooded paddy test; details: for Plant response rating, Flood, Barnyardgrass: 250 g ai/ha, flooded paddy test, visual rating on 0 to 100 scale (0 no effect, 100 complete control) after 13 to 15 days; for Plant response rating, Barnyardgrass: Flood (flooded paddy test), 13 to 15 days
# Procedure, shortened: (§1)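 2-leaf seedlings; pots flooded 3 cm over soil at treatment; cpd dosed into floodwater, depth kept constant. Greenhouse 13–15 d. Visual rating vs untreated controls, 0 = no effect, 100 = complete control.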
# rice (Oryza sativa) = assay: Test B flooded paddy test; details: for Plant response rating, Flood, Rice: 250 g ai/ha, flooded paddy test, visual rating on 0 to 100 scale (0 no effect, 100 complete control) after 13 to 15 days; for Plant response rating, Rice: Flood (flooded paddy test), 13 to 15 days
# Procedure, shortened: as §1
# [2] = system: ducksalad (Heteranthera limosa); assay: Test B flooded paddy test; details: for Plant response rating, Flood, Ducksalad: 250 g ai/ha, flooded paddy test, visual rating on 0 to 100 scale (0 no effect, 100 complete control) after 13 to 15 days; for Plant response rating, Ducksalad: Flood (flooded paddy test), 13 to 15 days
# Procedure, shortened: as §1
# [3] = system: umbrella sedge (Cyperus difformis); assay: Test B flooded paddy test; details: for Plant response rating, Flood, Sedge, Umbrella: 250 g ai/ha, flooded paddy test, visual rating on 0 to 100 scale (0 no effect, 100 complete control) after 13 to 15 days; for Plant response rating, Sedge, Umbrella: Flood (flooded paddy test), 13 to 15 days
# Procedure, shortened: as §1
# soybean (Glycine max) = assay: Test B pre-/postemergence plant response
# Procedure, shortened: (§2)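 Greenhouse herbicide screen. Pre- and postemergence (1- to 4-leaf) spray of compound in solvent/surfactant mixture; loam–sand soil for pre, peat/vermiculite medium for post. Visual control rating 0–100 at 13 to 15 days after treatment.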
# corn (Zea mays) = assay: Test B pre-/postemergence plant response
# Procedure, shortened: as §2
# [4] = system: morningglory (Ipomoea coccinea); assay: Test B pre-/postemergence plant response
# Procedure, shortened: as §2
# [5] = system: bermudagrass (Cynodon dactylon); assay: Test B pre-/postemergence plant response
# Procedure, shortened: as §2
# [6] = system: blackgrass (Alopecurus myosuroides); assay: Test B pre-/postemergence plant response
# Procedure, shortened: as §2
# [7] = system: ragweed (common ragweed, Ambrosia elatior); assay: Test B pre-/postemergence plant response
# Procedure, shortened: as §2
# [8] = system: Surinam grass (Brachiaria decumbens); assay: Test B pre-/postemergence plant response
# Procedure, shortened: as §2
# [9] = system: cocklebur (Xanthium strumarium); assay: Test B pre-/postemergence plant response
# Procedure, shortened: as §2
# [10] = system: Italian ryegrass (Lolium multiflorum); assay: Test B pre-/postemergence plant response
# Procedure, shortened: as §2
# [11] = 31 g ai/ha, scale of 0 to 100 where 0 is no effect and 100 is complete control
# [12] = 62 g ai/ha, scale of 0 to 100 where 0 is no effect and 100 is complete control
# [13] = 125 g ai/ha, scale 0 to 100, 0 is no effect, 100 is complete control
# [14] = 31 g ai/ha, postemergence, scale 0 to 100, 0 is no effect, 100 is complete control
# [15] = Postemergence, 62 g ai/ha, scale 0 (no effect) to 100 (complete control), 13 to 15 days
# [16] = Postemergence, 125 g ai/ha, visual rating after 13 to 15 days, scale 0 (no effect) to 100 (complete control)
# [17] = Postemergence, 250 g ai/ha, scale 0 to 100 (0 no effect, 100 complete control)
# [18] = Preemergence, 31 g ai/ha, scale 0 to 100 (0 no effect, 100 complete control)
# [19] = Preemergence, 125 g ai/ha, scale 0 to 100, 0 no effect, 100 complete control
# [20] = 250 g ai/ha, Preemergence, 0 to 100 scale
# [21] = Preemergence, 62 g ai/ha, scale 0 to 100 (0 no effect, 100 complete control)
structure (smiles),measurement,setting,value
O=C1CCCC(O)=C1C(=O)c1cnc(-c2ccsc2)n(-c2ccccc2)c1=O [Compound 56],"Plant response rating, Flood, Barnyardgrass",[1],35
same,"Plant response rating, Barnyardgrass",[1]; [11],10
same,"Plant response rating, Barnyardgrass",[1]; [12],15
same,"Plant response rating, Barnyardgrass",[1]; [13],20
same,"Plant response rating, Flood, Rice",rice (Oryza sativa),20
same,"Plant response rating, Rice",rice (Oryza sativa); [11],0
same,"Plant response rating, Rice",rice (Oryza sativa); [12],0
same,"Plant response rating, Rice",rice (Oryza sativa); [13],15
same,"Plant response rating, Flood, Ducksalad",[2],50
same,"Plant response rating, Ducksalad",[2]; [11],0
same,"Plant response rating, Ducksalad",[2]; [12],20
same,"Plant response rating, Ducksalad",[2]; [13],40
same,"Plant response rating, Flood, Sedge, Umbrella",[3],75
same,"Plant response rating, Sedge, Umbrella",[3]; [11],30
same,"Plant response rating, Sedge, Umbrella",[3]; [12],40
same,"Plant response rating, Sedge, Umbrella",[3]; [13],60
same,"Plant response rating, Soybean",soybean (Glycine max); [14],85
same,"Plant response rating, Soybean",soybean (Glycine max); [15],85
same,"Plant response rating, Soybean",soybean (Glycine max); [16],95
same,"Plant response rating, Soybean",soybean (Glycine max); [17],98
same,"Plant response rating, Soybean",soybean (Glycine max); [18],20
same,"Plant response rating, Soybean",soybean (Glycine max); [19],80
same,"Plant response rating, Corn",corn (Zea mays); [14],45
same,"Plant response rating, Corn",corn (Zea mays); [20],0
same,"Plant response rating, Corn",corn (Zea mays); [15],65
same,"Plant response rating, Corn",corn (Zea mays); [16],65
same,"Plant response rating, Corn",corn (Zea mays); [17],70
same,"Plant response rating, Corn",corn (Zea mays); [18],0
same,"Plant response rating, Corn",corn (Zea mays); [21],0
same,"Plant response rating, Corn",corn (Zea mays); [19],0
same,"Plant response rating, Morningglory",[4]; [16],100
same,"Plant response rating, Morningglory",[4]; [17],100
same,"Plant response rating, Morningglory",[4]; [18],0
same,"Plant response rating, Morningglory",[4]; [21],0
same,"Plant response rating, Morningglory",[4]; [19],45
same,"Plant response rating, Bermudagrass",[5]; [14],75
same,"Plant response rating, Bermudagrass",[5]; [20],100
same,"Plant response rating, Bermudagrass",[5]; [15],85
same,"Plant response rating, Bermudagrass",[5]; [16],100
same,"Plant response rating, Bermudagrass",[5]; [17],100
same,"Plant response rating, Bermudagrass",[5]; [18],98
same,"Plant response rating, Bermudagrass",[5]; [21],100
same,"Plant response rating, Bermudagrass",[5]; [19],100
same,"Plant response rating, Blackgrass",[6]; [14],0
same,"Plant response rating, Blackgrass",[6]; [20],5
same,"Plant response rating, Blackgrass",[6]; [15],10
same,"Plant response rating, Blackgrass",[6]; [16],20
same,"Plant response rating, Blackgrass",[6]; [17],20
same,"Plant response rating, Blackgrass",[6]; [18],0
same,"Plant response rating, Blackgrass",[6]; [21],0
same,"Plant response rating, Blackgrass",[6]; [19],0
same,"Plant response rating, Ragweed",[7]; [14],55
same,"Plant response rating, Ragweed",[7]; [15],55
same,"Plant response rating, Ragweed",[7]; [16],75
same,"Plant response rating, Ragweed",[7]; [17],75
same,"Plant response rating, Ragweed",[7]; [18],20
same,"Plant response rating, Ragweed",[7]; [21],65
same,"Plant response rating, Ragweed",[7]; [19],70
same,"Plant response rating, Surinam Grass",[8]; [14],75
same,"Plant response rating, Surinam Grass",[8]; [15],80
same,"Plant response rating, Surinam Grass",[8]; [16],85
same,"Plant response rating, Surinam Grass",[8]; [17],100
same,"Plant response rating, Surinam Grass",[8]; [18],55
same,"Plant response rating, Surinam Grass",[8]; [21],95
same,"Plant response rating, Surinam Grass",[8]; [19],98
same,"Plant response rating, Cocklebur",[9]; [14],5
same,"Plant response rating, Cocklebur",[9]; [20],0
same,"Plant response rating, Cocklebur",[9]; [15],55
same,"Plant response rating, Cocklebur",[9]; [16],75
same,"Plant response rating, Cocklebur",[9]; [17],95
same,"Plant response rating, Cocklebur",[9]; [18],0
same,"Plant response rating, Cocklebur",[9]; [21],0
same,"Plant response rating, Cocklebur",[9]; [19],0
same,"Plant response rating, Ryegrass, Italian",[10]; [14],0
same,"Plant response rating, Ryegrass, Italian",[10]; [15],0
same,"Plant response rating, Ryegrass, Italian",[10]; [16],50
same,"Plant response rating, Ryegrass, Italian",[10]; [17],50
same,"Plant response rating, Ryegrass, Italian",[10]; [18],0
same,"Plant response rating, Ryegrass, Italian",[10]; [21],0
same,"Plant response rating, Ryegrass, Italian",[10]; [19],0
O=C1CCCC(O)=C1C(=O)c1cnc(-c2ccccc2)n(CC2CCCO2)c1=O (centres unmarked) [Compound 59],"Plant response rating, Flood, Barnyardgrass",[1],45
same,"Plant response rating, Barnyardgrass",[1]; [11],0
same,"Plant response rating, Barnyardgrass",[1]; [12],0
same,"Plant response rating, Barnyardgrass",[1]; [13],20
same,"Plant response rating, Flood, Rice",rice (Oryza sativa),15
same,"Plant response rating, Rice",rice (Oryza sativa); [11],0
same,"Plant response rating, Rice",rice (Oryza sativa); [12],15
same,"Plant response rating, Rice",rice (Oryza sativa); [13],15
same,"Plant response rating, Flood, Ducksalad",[2],40
same,"Plant response rating, Ducksalad",[2]; [11],0
same,"Plant response rating, Ducksalad",[2]; [12],0
same,"Plant response rating, Ducksalad",[2]; [13],0
same,"Plant response rating, Flood, Sedge, Umbrella",[3],75
same,"Plant response rating, Sedge, Umbrella",[3]; [11],30
same,"Plant response rating, Sedge, Umbrella",[3]; [12],40
same,"Plant response rating, Sedge, Umbrella",[3]; [13],50
same,"Plant response rating, Soybean",soybean (Glycine max); [14],90
same,"Plant response rating, Soybean",soybean (Glycine max); [15],95
same,"Plant response rating, Soybean",soybean (Glycine max); [16],95
same,"Plant response rating, Soybean",soybean (Glycine max); [17],95
same,"Plant response rating, Soybean",soybean (Glycine max); [21],0
same,"Plant response rating, Soybean",soybean (Glycine max); [19],0
same,"Plant response rating, Corn",corn (Zea mays); [20],0
same,"Plant response rating, Corn",corn (Zea mays); [15],0
same,"Plant response rating, Corn",corn (Zea mays); [16],75
same,"Plant response rating, Corn",corn (Zea mays); [17],75
same,"Plant response rating, Corn",corn (Zea mays); [18],0
same,"Plant response rating, Corn",corn (Zea mays); [21],0
same,"Plant response rating, Corn",corn (Zea mays); [19],0
same,"Plant response rating, Morningglory",[4]; [15],50
same,"Plant response rating, Morningglory",[4]; [16],80
same,"Plant response rating, Morningglory",[4]; [17],80
same,"Plant response rating, Morningglory",[4]; [21],0
same,"Plant response rating, Morningglory",[4]; [19],55
same,"Plant response rating, Bermudagrass",[5]; [20],98
same,"Plant response rating, Bermudagrass",[5]; [15],90
same,"Plant response rating, Bermudagrass",[5]; [16],98
same,"Plant response rating, Bermudagrass",[5]; [17],100
same,"Plant response rating, Bermudagrass",[5]; [18],10
same,"Plant response rating, Bermudagrass",[5]; [21],98
same,"Plant response rating, Bermudagrass",[5]; [19],98
same,"Plant response rating, Blackgrass",[6]; [14],10
same,"Plant response rating, Blackgrass",[6]; [20],40
same,"Plant response rating, Blackgrass",[6]; [15],35
same,"Plant response rating, Blackgrass",[6]; [16],40
same,"Plant response rating, Blackgrass",[6]; [17],60
same,"Plant response rating, Blackgrass",[6]; [18],0
same,"Plant response rating, Blackgrass",[6]; [21],0
same,"Plant response rating, Blackgrass",[6]; [19],30
same,"Plant response rating, Ragweed",[7]; [14],75
same,"Plant response rating, Ragweed",[7]; [15],80
same,"Plant response rating, Ragweed",[7]; [16],90
same,"Plant response rating, Ragweed",[7]; [17],95
same,"Plant response rating, Ragweed",[7]; [18],75
same,"Plant response rating, Ragweed",[7]; [21],90
same,"Plant response rating, Ragweed",[7]; [19],90
same,"Plant response rating, Surinam Grass",[8]; [14],75
same,"Plant response rating, Surinam Grass",[8]; [15],80
same,"Plant response rating, Surinam Grass",[8]; [16],90
same,"Plant response rating, Surinam Grass",[8]; [17],90
same,"Plant response rating, Surinam Grass",[8]; [18],5
same,"Plant response rating, Surinam Grass",[8]; [21],75
same,"Plant response rating, Surinam Grass",[8]; [19],85
same,"Plant response rating, Cocklebur",[9]; [14],85
same,"Plant response rating, Cocklebur",[9]; [20],75
same,"Plant response rating, Cocklebur",[9]; [15],85
same,"Plant response rating, Cocklebur",[9]; [16],90
same,"Plant response rating, Cocklebur",[9]; [17],100
same,"Plant response rating, Cocklebur",[9]; [18],0
same,"Plant response rating, Cocklebur",[9]; [21],0
same,"Plant response rating, Cocklebur",[9]; [19],10
same,"Plant response rating, Ryegrass, Italian",[10]; [14],5
same,"Plant response rating, Ryegrass, Italian",[10]; [15],50
same,"Plant response rating, Ryegrass, Italian",[10]; [16],70
same,"Plant response rating, Ryegrass, Italian",[10]; [17],80
same,"Plant response rating, Ryegrass, Italian",[10]; [18],0
same,"Plant response rating, Ryegrass, Italian",[10]; [21],0
same,"Plant response rating, Ryegrass, Italian",[10]; [19],20
